The values that follow come from patent US12521393B2, “Cytotoxicity targeting chimeras for CCR2-expressing cells” (GLAXOSMITHKLINE INTELLECTUAL PROPERTY DEVELOPMENT LIMITED, priority 2021, dated 2026).

Structures can show the parent of a compound that is named as a salt.

For the test, the system named is endogenous target monocytes in human PBMC. Kind of test: PBMC ex vivo monocyte depletion flow cytometry assay (Example 200). It counts as cell-based. The conditions noted are these: with anti-cotinine antibody (SEQ ID NO: 11/12), 18-24 hours, EC50 in molar, read-out: Ex Vivo Depletion Assay pEC50 (converted). As for the experimental part: A human PBMC (peripheral blood mononuclear cells) monocyte depletion flow cytometry assay was developed to screen compounds in a 384-well plate format. This assay incorporated endogenous natural killer cells to deplete endogenous target monocytes.
To screen compounds in the human PBMC monocyte depletion flow cytometry assay, 11-point dose-response curves were made from 1 mM stocks in neat DMSO by serially diluting an ARM compound of Formula (I) four-fold into a 384-well plate row-wise. These serially diluted compounds were then stamped into a flat bottom polypropylene 384-well plate (Greiner Bio-One) at 100 nL/well. Fifty microliters of 30 μg/mL anti-cotinine antibody having a heavy chain sequence of SEQ ID NO: 11 and a light chain sequence of SEQ ID NO: 12 (rabbit variable region with human IgG1 Fc domain containing a DE mutation (S239D/1332E)) that had been diluted in assay medium (RPMI 1640 (Gibco) containing 10% fetal bovine serum (Gibco), 1% Glutamax (Gibco) and 1% sodium pyruvate (Corning) was added to the wells of the plate. The plate was centrifuged for 1 min at 500 rpm (revolutions per minute) and then shaken for 5 min at room temperature. The plate was incubated for 15 minutes at 37° C./5% CO2.
Frozen PBMC cells (HemaCare BioResearch) were thawed and centrifuged at 1,200 rpm for 4 minutes. The cells were diluted to a cell density of 2×10^6 cells/mL in assay medium. Fifty microliters of the diluted cells were added to the wells of the plate. The plate was centrifuged for 1 min at 500 rpm and incubated for 18-24 hours at 37° C./5% CO2.
After 18-24 hours incubation, 2 μL of 6.25 μg human FC block (BD Pharmingen) that was diluted in assay medium was added to the wells of the plate. The plate was centrifuged for 1 minute at 500 rpm and then incubated at room temperature for 15 minutes. Five microliters of 750 nM Helix NP NIR (Biolegend) that had been diluted in assay medium was added to the wells of the plate. Nine microliters of antibody cocktail containing 1/5 diluted fluorescein isothiocyanate (FITC) labeled anti-CD45 antibody (Beckman Coulter), PC7 labeled anti-CD14 antibody (Beckman Coulter) and phyocoerythrin (PE) anti-CD4 antibody (Beckman Coulter) was then added to the wells of the plate. The plate was centrifuged for 1 min at 500 rpm and incubated for 30 minutes at 4-8° C. Samples from the plate were run on BD FACS Canto II flow cytometer and data was analyzed using FlowJo software.
ARMs compounds of Formula (I) of the invention were tested for the ability to deplete monocytes in the above assay in one or more experimental runs and the results are shown in Table 3 below. Potency of the compounds of the invention is reported as a pEC50 value. The pEC50 value is the negative log of the EC50 value, wherein the EC50 value is the half maximal effective concentration measured in molar (M). For compounds tested in more than one experimental run, the pEC50 value is reported as an average or as the individual values measured
(In general: Flow cytometry measures light scatter and fluorescence of single cells or particles in a stream.)

Consider `CC(C)N(C)[C@@H]1CC[C@H](N2CC[C@H](Nc3ncnc4ccc(C(F)(F)F)cc34)C2=O)[C@H](NC(=O)[C@H]2CC[C@H](C3CCN(CCOCCOCCNC(=O)[C@H]4CC(=O)N(C)[C@@H]4c4cccnc4)CC3)CC2)C1` [Example 189, (2S,3S)-N-(2-(2-(2-(4-((1R,4r)-4-(((1R,2S,5R)-5-(Isopropyl(methyl)amino)-2-((S)-2-oxo-3-((6-(trifluoromethyl)quinazolin-4-yl)amino)pyrrolidin-1-yl)cyclohexyl)carbamoyl)cyclohexyl)piperidin-1-yl)ethoxy)ethoxy)ethyl)-1-methyl-5-oxo-2-(pyridin-3-yl)pyrrolidine-3-carboxamide], for which the EC50 is 7.94 nM.

As for `CC(C)N(C)[C@@H]1CC[C@H](N2CC[C@H](Nc3ncnc4ccc(C(F)(F)F)cc34)C2=O)[C@H](NC(=O)CCOCCC(=O)N2CCC3(CCC(C(=O)NCCNC(=O)[C@H]4CC(=O)N(C)[C@@H]4c4cccnc4)CC3)CC2)C1` [Example 167, 3-(3-(3-(((1R,2S,5R)-5-(Isopropyl(methyl)amino)-2-((S)-2-oxo-3-((6-(trifluoromethyl)quinazolin-4-yl)amino)pyrrolidin-1-yl)cyclohexyl)amino)-3-oxopropoxy)propanoyl)-N-(2-((2S,3S)-1-methyl-5-oxo-2-(pyridin-3-yl)pyrrolidine-3-carboxamido)ethyl)-3-azaspiro[5.5]undecane-9-carboxamide], the EC50 is 1.58 nM.

In the case of `CC(C)N(C)[C@@H]1CC[C@H](N2CC[C@H](Nc3ncnc4ccc(C(F)(F)F)cc34)C2=O)[C@H](NC(=O)CCCN2CCC3(CCC(C(=O)NCCNC(=O)[C@H]4CC(=O)N(C)[C@@H]4c4cccnc4)CC3)CC2)C1` [Example 183, 3-(4-(((1R,2S,5R)-5-(Isopropyl(methyl)amino)-2-((S)-2-oxo-3-((6-(trifluoromethyl)quinazolin-4-yl)amino)pyrrolidin-1-yl)cyclohexyl)amino)-4-oxobutyl)-N-(2-((2S,3S)-1-methyl-5-oxo-2-(pyridin-3-yl)pyrrolidine-3-carboxamido)ethyl)-3-azaspiro[5.5]undecane-9-carboxamide, 3 Formic acid salt], the EC50 is 0.251 nM. For the molecule `CC(C)N(C)[C@@H]1CC[C@H](N2CC[C@H](Nc3ncnc4ccc(C(F)(F)F)cc34)C2=O)[C@H](NC(=O)c2ccc(NCCOCCOCCOCCOCCNC(=O)[C@H]3CC(=O)N(C)[C@@H]3c3cccnc3)nn2)C1` [Example 125, N-((1R,2S,5R)-5-(Isopropyl(methyl)amino)-2-((S)-2-oxo-3-((6-(trifluoromethyl)quinazolin-4-yl)amino)pyrrolidin-1-yl)cyclohexyl)-6-((1-((2S,3S)-1-methyl-5-oxo-2-(pyridin-3-yl)pyrrolidin-3-yl)-1-oxo-5,8,11,14-tetraoxa-2-azahexadecan-16-yl)amino) pyridazine-3-carboxamide], the EC50 is 15.8 nM. The same measure for `CC(C)N(C)[C@@H]1CC[C@H](N2CC[C@H](Nc3ncnc4ccc(C(F)(F)F)cc34)C2=O)[C@H](NC(=O)c2cccc(NCCOCCOCCOCCOCCOCCNC(=O)[C@H]3CC(=O)N(C)[C@@H]3c3cccnc3)n2)C1` [Example 124, N-((1R,2S,5R)-5-(Isopropyl(methyl)amino)-2-((S)-2-oxo-3-((6-(trifluoromethyl)quinazolin-4-yl)amino)pyrrolidin-1-yl)cyclohexyl)-6-((1-((2S,3S)-1-methyl-5-oxo-2-(pyridin-3-yl)pyrrolidin-3-yl)-1-oxo-5,8, 11, 14, 17-pentaoxa-2-azanonadecan-19-yl)amino)picolinamide]: 100000 nM; for `CC(C)N(C)[C@@H]1CC[C@H](N2CC[C@H](Nc3ncnc4ccc(C(F)(F)F)cc34)C2=O)[C@H](NC(=O)C2CCN(C3CCN(C4CCN(CCCCNC(=O)[C@H]5CC(=O)N(C)[C@@H]5c5cccnc5)CC4)CC3)CC2)C1` [Example 185, N-((1R,2S,5R)-5-(isopropyl(methyl)amino)-2-((S)-2-oxo-3-((6-(trifluoromethyl)quinazolin-4-yl)amino)pyrrolidin-1-yl)cyclohexyl)-1″-(4-((2S,3S)-1-methyl-5-oxo-2-(pyridin-3-yl)pyrrolidine-3-carboxamido)butyl)-[1,4′:1′,4″-terpiperidine]-4-carboxamide]: 0.0631 nM; for `CC(C)N(C)[C@@H]1CC[C@H](N2CC[C@H](Nc3ncnc4ccc(C(F)(F)F)cc34)C2=O)[C@H](NC(=O)[C@H]2CC[C@@H](NC(=O)C3CCC4(CC3)CCN(C(=O)[C@H]3CC(=O)N(C)[C@@H]3c3cccnc3)CC4)CC2)C1` [Example 95, N-((1S,4R)-4-(((1R,2S,5R)-5-(Isopropyl(methyl)amino)-2-((S)-2-oxo-3-((6-(trifluoromethyl)quinazolin-4-yl)amino)pyrrolidin-1-yl)cyclohexyl)carbamoyl)cyclohexyl)-3-((2S,3S)-1-methyl-5-oxo-2-(pyridin-3-yl)pyrrolidine-3-carbonyl)-3-azaspiro[5.5]undecane-9-carboxamide]: 631 nM.

As to `CC(C)N(C)[C@@H]1CC[C@H](N2CC[C@H](Nc3ncnc4ccc(C(F)(F)F)cc34)C2=O)[C@H](NC(=O)[C@H]2CC[C@@H](N3CCC(C(=O)NCCOCCOCCNC(=O)[C@H]4CC(=O)N(C)[C@@H]4c4cccnc4)CC3)CC2)C1` [Example 134, 1-((1S,4s)-4-(((1R,2S,5R)-5-(Isopropyl(methyl)amino)-2-((S)-2-oxo-3-((6-(trifluoromethyl)quinazolin-4-yl)amino)pyrrolidin-1-yl)cyclohexyl)carbamoyl)cyclohexyl)-N-(2-(2-(2-((2S,3S)-1-methyl-5-oxo-2-(pyridin-3-yl)pyrrolidine-3-carboxamido)ethoxy)ethoxy)ethyl)piperidine-4-carboxamide, 3Formic acid salt], the EC50 is 0.126 nM.

For `CC(C)N(C)[C@@H]1CC[C@H](N2CC[C@H](Nc3ncnc4ccc(C(F)(F)F)cc34)C2=O)[C@H](NC(=O)c2cnn(C3CCN(CCOCCOCCOCCNC(=O)[C@H]4CC(=O)N(C)[C@@H]4c4cccnc4)CC3)c2)C1` [Example 129, N-((1R,2S,5R)-5-(Isopropyl(methyl)amino)-2-((S)-2-oxo-3-((6-(trifluoromethyl)quinazolin-4-yl)amino)pyrrolidin-1-yl)cyclohexyl)-1-(1-(1-((2S,3S)-1-methyl-5-oxo-2-(pyridin-3-yl)pyrrolidin-3-yl)-1-oxo-5,8,11-trioxa-2-azatridecan-13-yl)piperidin-4-yl)-1H-pyrazole-4-carboxamide], the EC50 is 1.26 nM. The same measure for `CC(C)N(C)[C@@H]1CC[C@H](N2CC[C@H](Nc3ncnc4ccc(C(F)(F)F)cc34)C2=O)[C@H](NC(=O)C2CCC3(CC2)CCN(CCOCCOCCNC(=O)[C@H]2CC(=O)N(C)[C@@H]2c2cccnc2)CC3)C1` [Example 93, N-((1R,2S,5R)-5-(Isopropyl(methyl)amino)-2-((S)-2-oxo-3-((6-(trifluoromethyl)quinazolin-4-yl)amino)pyrrolidin-1-yl)cyclohexyl)-3-(2-(2-(2-((2S,3S)-1-methyl-5-oxo-2-(pyridin-3-yl)pyrrolidine-3-carboxamido)ethoxy)ethoxy)ethyl)-3-azaspiro [5.5]undecane-9-carboxamide]: 126 nM. With `CC(C)N(C)[C@@H]1CC[C@H](N2CC[C@H](Nc3ncnc4ccc(C(F)(F)F)cc34)C2=O)[C@H](NC(=O)CCCOC[C@H]2CC[C@H](COCCNC(=O)[C@H]3CC(=O)N(C)[C@@H]3c3cccnc3)CC2)C1` [Example 58, (2S,3S)-N-(2-(((1R,4S)-4-((4-(((1R,2S,5R)-5-(Isopropyl(methyl)amino)-2-((S)-2-oxo-3-((6-(trifluoromethyl)quinazolin-4-yl)amino)pyrrolidin-1-yl)cyclohexyl)amino)-4-oxobutoxy)methyl)cyclohexyl)methoxy)ethyl)-1-methyl-5-oxo-2-(pyridin-3-yl)pyrrolidine-3-carboxamide], the EC50 is 7.94 nM.
